Reference: PMC11020896, “Development of a ^99mTc-labeled tetrazine for pretargeted SPECT imaging using an alendronic acid-based bone targeting model” (PLOS ONE, 2024)
One block for each molecule: values may come before it.

Experiments:
[1] = system: Healthy Balb/c female mice; assay: SPECT/CT quantitative image analysis of 99mTc-labeled Tzs (pretargeted with Aln-TCO, saline control, or directly targeted); assay type: in vivo; settings: for blood pool activity: directly targeted Aln-TCO
Experimental: (§1) The study was conducted in compliance with the guidelines set by the Canadian Council on Animal Care (CCAC) and approved by the Animal Care Committee (ACC) at the University of British Columbia (A20-0132). Healthy Balb/c female mice (~25 g) were anesthetized using isoflurane delivered via a precision vaporizer (5% in oxygen for induction, between 1.5 and 2.5% in oxygen for maintenance) and received 100 μL of a 2 mg/kg solution of Aln-TCO in saline (pretargeted groups), or 100 μL saline (control groups) via intravenous injection. After 1 h, mice were anesthetized again and received another i.v. injection containing 100 μL of ^99mTc labeled Tzs in saline, with an average activity of 17.58 MBq, as well as a subcutaneous injection of Lactated Ringer’s solution (0.5 mL) to ensure hydration before each imaging scan. After the injection, a VECTor/CT multimodal preclinical scanner (MILabs, The Netherlands) equipped with a HEUHR-1 mm mouse pinhole collimator was used to obtain static whole-body images. The first scans were obtained with a single frame lasting 25 minutes, followed by scans at 2- and 6-hours post-injection, each with a single frame lasting 40 and 50 minutes, respectively.
Throughout the scanning process, mice were maintained under isoflurane anesthesia and kept warm with a heating pad to ensure constant body temperature. Following each SPECT acquisition, a whole-body CT scan was performed to obtain anatomical information and the two images were registered. The ^99mTc photopeak window was centered at 140 keV with a 25% energy window width. SPECT image reconstructions were carried out using a pixel-ordered subset expectation maximization (POSEM) algorithm with 16 subsets, 6 iterations, and an isotropic 0.4 mm voxel grid to enable quantitative analysis. The images were decay corrected, and after CT registration, attenuation correction was applied. For visual representation, the reconstructed volumes of SPECT scans were post-filtered with a 3D Gaussian filter. CT scans were conducted using a tube setting of 55 kV and 615 μA, and 2 frames of 180 projections over 360 degrees were captured in step and shoot rotation mode. The acquired projection data was reconstructed using SkyScan NRecon software to generate a 3D CT image on 0.169 mm^3 voxel size. Volumes of interest (VOIs), in the left ventricle of the heart (blood pool), liver (n = 3), bladder, kidney (n = 2), shoulder and knee joint (n = 2, respectively) were manually defined using AMIDE [49] (v.1.0.5) to determine the time activity pattern per target organ. The average organ activity per volume was obtained from the SPECT images and the %ID/g of tissue were extracted from each organ. To relate the scanner units (counts/pixel) to radioactivity concentration (MBq/mL), a calibration factor was determined scanning a source with a known concentration of ^99mTc. Following the last time imaging time point (6 h, except mice injected with ^99mTc-3, which were sacrificed 24 h p.i.), mice were sacrificed via CO2 asphyxiation under isoflurane anesthesia. Blood was recovered via cardiac puncture and organs of interest were dissected out, cleaned and weighed. The bone uptake of the shoulder was measured by measuring the activity of scapula and humerus, cut below the elbow joint, while knee uptake was measured in the femur, cut below the knee joint. […] The activity was quantified on a calibrated Cobra II Autogamma counter (Packard Instruments, USA) and decay corrected to the time of injection. […]

[2] = system: Healthy Balb/c female mice; assay: Post-mortem (ex vivo) biodistribution after last imaging time point, gamma counter; assay type: in vivo
Experimental: as §1
Throughout the scanning process, mice were maintained under isoflurane anesthesia and kept warm with a heating pad to ensure constant body temperature. Following each SPECT acquisition, a whole-body CT scan was performed to obtain anatomical information and the two images were registered. The ^99mTc photopeak window was centered at 140 keV with a 25% energy window width. SPECT image reconstructions were carried out using a pixel-ordered subset expectation maximization (POSEM) algorithm with 16 subsets, 6 iterations, and an isotropic 0.4 mm voxel grid to enable quantitative analysis. The images were decay corrected, and after CT registration, attenuation correction was applied. For visual representation, the reconstructed volumes of SPECT scans were post-filtered with a 3D Gaussian filter. CT scans were conducted using a tube setting of 55 kV and 615 μA, and 2 frames of 180 projections over 360 degrees were captured in step and shoot rotation mode. The acquired projection data was reconstructed using SkyScan NRecon software to generate a 3D CT image on 0.169 mm^3 voxel size. Volumes of interest (VOIs), in the left ventricle of the heart (blood pool), liver (n = 3), bladder, kidney (n = 2), shoulder and knee joint (n = 2, respectively) were manually defined using AMIDE [49] (v.1.0.5) to determine the time activity pattern per target organ. The average organ activity per volume was obtained from the SPECT images and the %ID/g of tissue were extracted from each organ. To relate the scanner units (counts/pixel) to radioactivity concentration (MBq/mL), a calibration factor was determined scanning a source with a known concentration of ^99mTc. Following the last time imaging time point (6 h, except mice injected with ^99mTc-3, which were sacrificed 24 h p.i.), mice were sacrificed via CO2 asphyxiation under isoflurane anesthesia. Blood was recovered via cardiac puncture and organs of interest were dissected out, cleaned and weighed. The bone uptake of the shoulder was measured by measuring the activity of scapula and humerus, cut below the elbow joint, while knee uptake was measured in the femur, cut below the knee joint. Bone samples were thoroughly cleaned from muscle and connective tissue. The activity was quantified on a calibrated Cobra II Autogamma counter (Packard Instruments, USA) and decay corrected to the time of injection.

[3] = directly targeted Aln-TCO, biodistribution 6 h p.i., ratio of %ID/g
[4] = directly targeted Aln-TCO, sacrificed 6 h p.i.

SMILES: O=C(O)CN(CCNC(=O)CCOCCOCCOCCOCCOCCOCCOCCOCCNC(=O)CCCC(=O)Nc1ccc(-c2nncnn2)cc1)Cc1cccc(C(=O)O)n1 [Tz 4, 6-(38-((4-(1,2,4,5-tetrazin-3-yl)phenyl)amino)-2-(carboxymethyl)-6,34,38-trioxo-9,12,15,18,21,24,27,30-octaoxa-2,5,33-triazaoctatriacontyl)picolinic acid]
bone accumulation, pretargeted vs. non-targeted group ([1]; image analysis of shoulder and knee at 0, 2 and 6 h p.i.): did not show statistically significant bone uptake at any time point compared to the saline control

difference in blood pool activity, 1* vs 1a ([1]; 6 h p.i.): 15 fold | blood pool activity ([1]; image analysis, 0 h): 27.35 ± 3.79 %ID/g | liver activity over time ([1]; image analysis, 0-6 h, directly targeted): increase over time | blood pool activity ([1]; image analysis, 6 h p.i.): 3.66 ± 0.65 %ID/g | Knee/Blood ratio [2, 3]: 2.39 ± 0.09 | Knee/Liver ratio [2, 3]: 0.17 ± 0.09 | Shoulder/Blood ratio [2, 3]: 1.29 ± 0.30 | Shoulder/Liver ratio [2, 3]: 0.09 ± 0.30 | Bladder activity, post-mortem biodistribution [2, 4]: 1.22 ± 0.04 % ID/g | Blood activity, post-mortem biodistribution [2, 4]: 3.82 ± 0.32 % ID/g | Brain activity, post-mortem biodistribution [2, 4]: 0.10 ± 0.01 % ID/g | Heart activity, post-mortem biodistribution [2, 4]: 2.87 ± 0.27 % ID/g | Intestine activity, post-mortem biodistribution [2, 4]: 3.85 ± 0.49 % ID/g | Kidney activity, post-mortem biodistribution [2, 4]: 9.04 ± 0.60 % ID/g | Knee activity, post-mortem biodistribution [2, 4]: 9.13 ± 0.73 % ID/g | Liver activity, post-mortem biodistribution [2, 4]: 54.39 ± 4.03 % ID/g | Lung activity, post-mortem biodistribution [2, 4]: 6.70 ± 0.85 % ID/g | Muscle activity, post-mortem biodistribution [2, 4]: 0.31 ± 0.01 % ID/g | Pancreas activity, post-mortem biodistribution [2, 4]: 1.20 ± 0.20 % ID/g | Shoulder activity, post-mortem biodistribution [2, 4]: 4.91 ± 1.43 % ID/g | Spleen activity, post-mortem biodistribution [2, 4]: 38.03 ± 4.69 % ID/g | Stomach activity, post-mortem biodistribution [2, 4]: 1.70 ± 0.10 % ID/g | uptake in liver and spleen ([2]; directly targeted, 6 h p.i.): strong uptake
SMILES: O=C(O)CN(CCNC(=O)CCCC(=O)Nc1ccc(-c2nnc(-c3ccccn3)nn2)nc1)Cc1cccc(C(=O)O)n1 (99mTc complex, metal not drawn) [Tz 1, 6-(((carboxymethyl)(2-(5-oxo-5-((6-(6-(pyridin-2-yl)-1,2,4,5-tetrazin-3-yl)pyridin-3-yl)amino)pentanamido)ethyl)amino)methyl)picolinic acid]
